Experimental data from patent US7713967B2, “Therapeutic substituted hydantoins, and related compounds” (Allergan, Inc., priority 2008, dated 2010).

System: lashes and adjacent hairs
Test: Clinical observation of lashes and adjacent hairs in glaucoma patients treated in one eye
Assay type: in vivo
From the text: In the course of treating patients having glaucoma, treatment may only be appropriate in one eye. […] The lash appearance on the lids of the treated eyes would have appeared quite attractive if it represented a bilateral phenomenon. As a result of its asymmetric nature, the long lashes on one side could be construed as disturbing from a cosmetic standpoint. A systemic examination was preformed as a result of the asymmetric phenomenon. It soon became apparent that this altered appearance was not an isolated finding. […] Definite differences could be identified to varying degrees in the lashes and adjacent hairs of all patients who were taking the drug on a unilateral basis for longer than 6 months.
The changes in the lashes were apparent on gross inspection in several patients once attention was focused on the issue. In those with light colored hair and lashes, the differences were only seen easily with the aid of the high magnification and lighting capabilities of the slit lamp biomicroscope. In the course of glaucoma follow-up examination, attention is generally immediately focused on the eye itself. As a result of the high power magnification needed only one eye is seen at a time and the eye is seen at a high enough power that the lashes are not in focus. […]

## CCNC(=O)CCC/C=C\C[C@@H]1[C@@H](/C=C/[C@@H](O)CCc2ccccc2)[C@H](O)C[C@@H]1O [bimatoprost]
Glaucoma patient treated in one eye only
  lash appearance in the treated eye versus the non-treated eye: longer, thicker, and fuller
Multiple parameters of hair appearance, many subjects
  hair growth in treated versus control areas: stimulated
